Results on twelve compounds are retold here after PubChem BioAssay (NCI).

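Assay format: 96-well plates, 48-hour exposure. GI50: concentration for 50% inhibition of growth. TGI marks complete inhibition of growth.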

For one experiment, the system named is ACHN renal. Nature of the experiment: NCI anticancer screen, dose series, 48 h.
For `O=c1c2sc(=S)n(-c3ccc(F)cc3)c2ncn1/N=C/c1ccc(F)cc1F`, the TGI was above 100 µM.

`CS(=O)c1ncc2c(n1)-c1ccccc1OC2` (configuration not stated) returned a TGI above 100 µM.

`COc1cccc2c1OC1(C=C2)Oc2ccccc2C(=O)N1C` (configuration not stated): the TGI is above 100 µM.

For `O=c1[nH]c(=O)n(C2OC(CO)C(O)C2O)c2nc(-c3ccc(-c4ccccc4)cc3)cnc12` (configuration not stated), the TGI is above 100 µM.

Regarding `CN1CSC(=S)N(c2c3ccccc3nc3ccc(Br)cc23)C1`, the TGI was 19.5 µM.

`O=C(O)c1ccccc1CC1Cc2ccccc2C1=O` (configuration not stated) showed a TGI above 100 µM.

Consider `CCCCCCOc1ccc(C(=O)NOC)cc1`, for which the TGI was above 100 µM.

The compound `NS(=O)(=O)c1cc(Cl)c(NC(=S)NC(=O)Nc2ccc(Cl)c(Cl)c2)c(Cl)c1` came in with a TGI above 100 µM.

Turning to `CO[C@H]1/C=C(/C)CCC[C@H](C)[C@H](O)[C@@H](C)C(=O)C(C)(C)[C@@H](O)CC(=O)O[C@@H]1/C(C)=C/c1csc(C)n1`, the GI50 was 0.0555 µM and the TGI was above 100 µM.

As for `COc1ccc2c(c1)OCC1Cc3ccccc3OC21` (configuration not stated), the TGI was above 100 µM.

For the compound `COC(=O)C1CCC(=O)N1C(c1ccc(OC)cc1)c1ccc2c(c1)OCO2` (configuration not stated), the TGI is above 100 µM.

With `CS(=O)(=O)OCC(CCl)(CCl)CCl`, the TGI was above 100 µM.

The test system of the next experiment is DU-145 prostate. Nature of the experiment: NCI anticancer screen, dose series, 48 h.
In turn, `O=c1c2sc(=S)n(-c3ccc(F)cc3)c2ncn1/N=C/c1ccc(F)cc1F` came in with a TGI of 39.4 µM.

On to `CS(=O)c1ncc2c(n1)-c1ccccc1OC2` (configuration not stated), for which the TGI was above 100 µM.

`COc1cccc2c1OC1(C=C2)Oc2ccccc2C(=O)N1C` (configuration not stated) registered a TGI above 100 µM.

`O=c1[nH]c(=O)n(C2OC(CO)C(O)C2O)c2nc(-c3ccc(-c4ccccc4)cc3)cnc12` (configuration not stated) yielded a TGI above 100 µM.

The compound `CN1CSC(=S)N(c2c3ccccc3nc3ccc(Br)cc23)C1` came in with a TGI of 22 µM.

In the case of `O=C(O)c1ccccc1CC1Cc2ccccc2C1=O` (configuration not stated), the TGI was above 100 µM.

`CCCCCCOc1ccc(C(=O)NOC)cc1`: the TGI is above 100 µM.

`NS(=O)(=O)c1cc(Cl)c(NC(=S)NC(=O)Nc2ccc(Cl)c(Cl)c2)c(Cl)c1`: the TGI is above 100 µM.

On to `CO[C@H]1/C=C(/C)CCC[C@H](C)[C@H](O)[C@@H](C)C(=O)C(C)(C)[C@@H](O)CC(=O)O[C@@H]1/C(C)=C/c1csc(C)n1`, for which the GI50 was 0.0259 µM and the TGI turned out to be 0.0817 µM.

In turn, `COc1ccc2c(c1)OCC1Cc3ccccc3OC21` (configuration not stated) displayed a TGI above 100 µM.

As to `COC(=O)C1CCC(=O)N1C(c1ccc(OC)cc1)c1ccc2c(c1)OCO2` (configuration not stated), the TGI was above 100 µM.

`CS(=O)(=O)OCC(CCl)(CCl)CCl` returned a TGI above 100 µM.

In the next experiment the test system is LOX IMVI melanoma. Description: NCI anticancer screen, dose series, 48 h.
Turning to `O=c1c2sc(=S)n(-c3ccc(F)cc3)c2ncn1/N=C/c1ccc(F)cc1F`, the TGI is above 100 µM.

As to `CS(=O)c1ncc2c(n1)-c1ccccc1OC2` (configuration not stated), the TGI is above 100 µM.

Regarding `COc1cccc2c1OC1(C=C2)Oc2ccccc2C(=O)N1C` (configuration not stated), the TGI was determined as 14.5 µM.

Take `O=c1[nH]c(=O)n(C2OC(CO)C(O)C2O)c2nc(-c3ccc(-c4ccccc4)cc3)cnc12` (configuration not stated): the TGI was above 100 µM.

`CN1CSC(=S)N(c2c3ccccc3nc3ccc(Br)cc23)C1` returned a TGI above 53.4 µM.

`O=C(O)c1ccccc1CC1Cc2ccccc2C1=O` (configuration not stated) returned a TGI above 100 µM.

In turn, `CCCCCCOc1ccc(C(=O)NOC)cc1` returned a TGI above 100 µM.

In turn, `NS(=O)(=O)c1cc(Cl)c(NC(=S)NC(=O)Nc2ccc(Cl)c(Cl)c2)c(Cl)c1` gave a TGI above 100 µM.

For the compound `CO[C@H]1/C=C(/C)CCC[C@H](C)[C@H](O)[C@@H](C)C(=O)C(C)(C)[C@@H](O)CC(=O)O[C@@H]1/C(C)=C/c1csc(C)n1`, the GI50 was 0.0162 µM and the TGI was above 100 µM.

Compound `COc1ccc2c(c1)OCC1Cc3ccccc3OC21` (configuration not stated) had a TGI above 100 µM.

The compound `COC(=O)C1CCC(=O)N1C(c1ccc(OC)cc1)c1ccc2c(c1)OCO2` (configuration not stated) displayed a TGI above 100 µM.

In turn, `CS(=O)(=O)OCC(CCl)(CCl)CCl` showed a TGI above 100 µM.

In a further experiment the test system is M14 melanoma. Description: NCI anticancer screen, dose series, 48 h.
On to `O=c1c2sc(=S)n(-c3ccc(F)cc3)c2ncn1/N=C/c1ccc(F)cc1F`, for which the TGI amounted to 67.4 µM.

As for `CS(=O)c1ncc2c(n1)-c1ccccc1OC2` (configuration not stated), the TGI was above 100 µM.

The compound `COc1cccc2c1OC1(C=C2)Oc2ccccc2C(=O)N1C` (configuration not stated) returned a TGI above 100 µM.

Consider `O=c1[nH]c(=O)n(C2OC(CO)C(O)C2O)c2nc(-c3ccc(-c4ccccc4)cc3)cnc12` (configuration not stated), for which the TGI is above 100 µM.

As to `CN1CSC(=S)N(c2c3ccccc3nc3ccc(Br)cc23)C1`, the TGI was 26.9 µM.

In turn, `O=C(O)c1ccccc1CC1Cc2ccccc2C1=O` (configuration not stated) registered a TGI above 100 µM.

Regarding `CCCCCCOc1ccc(C(=O)NOC)cc1`, the TGI is above 100 µM.

Turning to `NS(=O)(=O)c1cc(Cl)c(NC(=S)NC(=O)Nc2ccc(Cl)c(Cl)c2)c(Cl)c1`, the TGI was above 100 µM.

Take `CO[C@H]1/C=C(/C)CCC[C@H](C)[C@H](O)[C@@H](C)C(=O)C(C)(C)[C@@H](O)CC(=O)O[C@@H]1/C(C)=C/c1csc(C)n1`: the GI50 is 0.0218 µM and the TGI was above 100 µM.

Take `COc1ccc2c(c1)OCC1Cc3ccccc3OC21` (configuration not stated): the TGI is above 100 µM.

Consider `COC(=O)C1CCC(=O)N1C(c1ccc(OC)cc1)c1ccc2c(c1)OCO2` (configuration not stated), for which the TGI is above 100 µM.

As to `CS(=O)(=O)OCC(CCl)(CCl)CCl`, the TGI is above 100 µM.
